For ten molecules, GI50 and TGI results are on record in PubChem BioAssay (NCI).

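1) Cells in 96-well plates. 2) Compound, 48 h, 5 concentrations. 3) Linear interpolation between surrounding doses. 4) Unreached endpoint = highest concentration. GI50: concentration for 50% inhibition of growth. TGI: concentration producing complete growth inhibition.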 A value given as a limit tells only on which side of the number the result lay.

Test systems include SN12C renal; NCI-H460 lung; 786-0 renal; CAKI-1 renal; HOP-62 NSCLC; MCF7 breast; UO-31 renal; NCI-H226 lung; COLO 205 colon; OVCAR-4 ovarian.
Assay in all cases: NCI anticancer screen, dose series, 48 h

On to `Nc1cc2c(c3ccccc13)C(CCl)CN2C(=O)c1cc2cc(NC(=O)c3cc4ccccc4o3)ccc2[nH]1` (centres undefined), for which the GI50 is > 0.11 µM in the experiment with SN12C renal; 0.000351 µM with NCI-H460 lung; > 0.11 µM in the experiment on 786-0 renal; > 0.11 µM in the experiment with CAKI-1 renal; > 0.11 µM with MCF7 breast. In addition, the TGI with SN12C renal is 1.67 µM; in the experiment with 786-0 renal, > 1100 µM; in the experiment on CAKI-1 renal, < 0.11 µM; in the experiment on HOP-62 NSCLC, < 0.11 µM; in the experiment on MCF7 breast it was < 0.11 µM.
With `COc1ccc(C(=O)O[C@@H]2CCN3CC[C@H](C)[C@H]23)cc1`, the TGI in the experiment on UO-31 renal, in the experiment on SN12C renal, with NCI-H460 lung, in the experiment with 786-0 renal, with NCI-H226 lung and with CAKI-1 renal was > 100 µM each time. The TGI with HOP-62 NSCLC, in the experiment on COLO 205 colon and in the experiment on MCF7 breast was > 100 µM each time.
As for `S=C1NC(c2ccccc2)=NC(Cc2ccccc2)(c2ccccc2)N1c1ccccc1` (centres undefined), the TGI with UO-31 renal, in the experiment with SN12C renal, in the experiment with NCI-H460 lung, with 786-0 renal, with NCI-H226 lung and in the experiment on CAKI-1 renal was > 100 µM throughout. Moreover, the TGI with HOP-62 NSCLC, in the experiment with OVCAR-4 ovarian and with COLO 205 colon was > 100 µM in each case.
For the molecule `OC1CCC(COC(c2ccccc2)(c2ccccc2)c2ccccc2)O1` (centres undefined), the TGI with UO-31 renal is 33.2 µM; with SN12C renal it was 38.6 µM; in the experiment on NCI-H460 lung, 44.5 µM; in the experiment with 786-0 renal it was 35.2 µM; with NCI-H226 lung, 45.4 µM; in the experiment on CAKI-1 renal it was 30.9 µM. Further, the TGI with HOP-62 NSCLC was determined as 33.9 µM; with COLO 205 colon, 30.8 µM; with MCF7 breast it was 33.3 µM.
Consider `CC(=O)NS(=O)(=O)c1ccc(-n2nc(-c3ccccc3)cc2-c2cc(O)ccc2O)cc1`, for which the GI50 with UO-31 renal was > 100 µM; in the experiment on SN12C renal it was > 100 µM; in the experiment on NCI-H460 lung, > 100 µM; in the experiment with 786-0 renal it was 57.5 µM; with NCI-H226 lung, > 100 µM; in the experiment with CAKI-1 renal, > 100 µM. In addition, the GI50 in the experiment with HOP-62 NSCLC is > 100 µM; with COLO 205 colon, 44 µM; with MCF7 breast it was > 100 µM. Further, the TGI in the experiment on UO-31 renal, with SN12C renal, in the experiment on NCI-H460 lung, with 786-0 renal, in the experiment with NCI-H226 lung and in the experiment on CAKI-1 renal was > 100 µM in each case. Also, the TGI with HOP-62 NSCLC, with COLO 205 colon and with MCF7 breast was > 100 µM throughout.
With `COC(=O)CCC(=O)C(CC(=O)OC)C(=O)CCC(=O)NCCc1ccccc1` (centres undefined), the TGI in the experiment with UO-31 renal, in the experiment with SN12C renal, in the experiment with NCI-H460 lung, in the experiment on 786-0 renal, in the experiment on NCI-H226 lung and in the experiment with CAKI-1 renal was > 100 µM each time. In addition, the TGI in the experiment with HOP-62 NSCLC, in the experiment on OVCAR-4 ovarian and with COLO 205 colon was > 100 µM each time.
With `O=C(O)c1ccc(NCn2nc(-c3ccccc3O)oc2=S)cc1O`, the GI50 was > 100 µM in the experiment on UO-31 renal; 8.85 µM in the experiment on SN12C renal; 95.6 µM in the experiment with NCI-H460 lung; 95.2 µM in the experiment on 786-0 renal; 21 µM in the experiment on NCI-H226 lung; > 100 µM in the experiment on CAKI-1 renal. Besides, the GI50 in the experiment with HOP-62 NSCLC is > 100 µM; with COLO 205 colon it was 42.6 µM; with MCF7 breast it was > 100 µM. In addition, the TGI was > 100 µM with UO-31 renal; 60.1 µM in the experiment with SN12C renal; > 100 µM with NCI-H460 lung; > 100 µM in the experiment on 786-0 renal; > 100 µM in the experiment with NCI-H226 lung; > 100 µM in the experiment with CAKI-1 renal. Also, the TGI with HOP-62 NSCLC, in the experiment on COLO 205 colon and in the experiment on MCF7 breast was > 100 µM each time.
Consider `COC(=O)c1oc([N+](=O)[O-])c(-c2ccccc2)c1-c1ccccc1`, for which the TGI in the experiment on UO-31 renal, in the experiment on SN12C renal, in the experiment with NCI-H460 lung, in the experiment with 786-0 renal, in the experiment with NCI-H226 lung and in the experiment on CAKI-1 renal was > 100 µM throughout. In addition, the TGI in the experiment with HOP-62 NSCLC, with OVCAR-4 ovarian and in the experiment with COLO 205 colon was > 100 µM throughout.
Turning to `O=C1C2=C(c3ccccc31)C(c1ccccc1Cl)NC(=S)N2` (centres undefined), the TGI in the experiment with UO-31 renal, with SN12C renal, with NCI-H460 lung, in the experiment with 786-0 renal, in the experiment with NCI-H226 lung and in the experiment on CAKI-1 renal was > 100 µM throughout. Besides, the TGI with HOP-62 NSCLC, in the experiment on OVCAR-4 ovarian and in the experiment with COLO 205 colon was > 100 µM throughout.
Consider `N#CCC(=O)N/N=C(/C(=O)Nc1ccccc1)C1C(=O)N(c2ccccc2)N=C1N` (centres undefined), for which the TGI in the experiment with UO-31 renal, in the experiment with SN12C renal, in the experiment with NCI-H460 lung, with 786-0 renal, in the experiment on NCI-H226 lung and in the experiment with CAKI-1 renal was > 100 µM each time. In addition, the TGI in the experiment on HOP-62 NSCLC, in the experiment on OVCAR-4 ovarian and in the experiment on COLO 205 colon was > 100 µM throughout.
